Reference: patent US20050228180A1, “Alpha, omega-dicarboximide derivatives as useful uro-selective a1a adrenoceptor blockers” (priority 2002, published 2005)
Where a name gives a salt, the structure may show the parent alone.

Tests used:
α1B adrenoceptor = biological target: T1, α1B adrenoceptor (Rattus norvegicus, UniProt P15823); assay: Radioligand binding, [3H] prazosin displacement, rat liver membranes; details: read-out: Affinity (Ki) α1B (Rat Liver)
T1 construct: from tissue; host or cells: rat liver membranes
T1 sequence (P15823 1-515): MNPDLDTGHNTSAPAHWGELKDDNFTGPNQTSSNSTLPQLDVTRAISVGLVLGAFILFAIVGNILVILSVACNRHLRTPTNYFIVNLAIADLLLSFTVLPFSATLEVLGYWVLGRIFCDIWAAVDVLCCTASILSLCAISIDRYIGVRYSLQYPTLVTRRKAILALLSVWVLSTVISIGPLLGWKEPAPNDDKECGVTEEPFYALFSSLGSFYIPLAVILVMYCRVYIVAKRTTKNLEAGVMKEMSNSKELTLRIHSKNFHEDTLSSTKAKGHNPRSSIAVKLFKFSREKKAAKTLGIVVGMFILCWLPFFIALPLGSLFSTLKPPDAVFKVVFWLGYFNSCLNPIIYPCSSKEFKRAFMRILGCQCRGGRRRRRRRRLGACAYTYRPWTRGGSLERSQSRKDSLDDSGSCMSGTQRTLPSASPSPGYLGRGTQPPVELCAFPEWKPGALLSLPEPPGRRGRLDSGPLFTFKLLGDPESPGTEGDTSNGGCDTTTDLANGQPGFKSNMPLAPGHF
In short: (§1)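 Rat membranes (submaxillary for α1A, liver for α1B; 150-250 μg protein) incubated with [3H]prazosin and compound in Tris 50 mM/EDTA 5 mM pH 7.4, 1 h at 24-25° C. Nonspecific binding with 300 nM prazosin; filtration, counting; Ki via Cheng–Prusoff.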

α1A adrenoceptor = biological target: T2, α1A adrenoceptor (Rattus norvegicus, UniProt P43140); assay: Radioligand binding, [3H] prazosin displacement, rat submaxillary membranes
T2 construct: from tissue; host or cells: rat submaxillary gland membranes
T2 sequence (P43140 1-466): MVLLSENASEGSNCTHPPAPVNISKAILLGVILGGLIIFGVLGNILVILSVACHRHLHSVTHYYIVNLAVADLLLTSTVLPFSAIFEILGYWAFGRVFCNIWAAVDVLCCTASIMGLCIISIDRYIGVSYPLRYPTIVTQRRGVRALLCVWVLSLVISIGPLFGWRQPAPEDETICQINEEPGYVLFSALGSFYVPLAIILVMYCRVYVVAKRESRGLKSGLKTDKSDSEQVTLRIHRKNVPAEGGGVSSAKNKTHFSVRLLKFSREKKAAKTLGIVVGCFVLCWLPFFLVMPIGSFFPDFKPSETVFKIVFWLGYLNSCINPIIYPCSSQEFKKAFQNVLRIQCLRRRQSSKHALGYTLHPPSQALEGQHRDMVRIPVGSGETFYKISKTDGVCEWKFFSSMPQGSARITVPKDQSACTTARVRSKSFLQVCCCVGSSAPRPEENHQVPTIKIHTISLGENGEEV
In short: as §1

conscious beagle dogs = assay: In vivo uroselectivity study: phenylephrine response on MAP and IUP; parameters: species or system dog; details: 30 μg/kg p.o.
Description: In order to assess the uroselectivity in vivo, the effects of these compounds were studied on mean arterial pressure (MAP) and intraurethral pressure (UP) in conscious beagle dogs as per the method of Brune et al. (Pharmacol., 1996, 53:356). Briefly, male dogs were instrumented for chronic continuous measurement of arterial blood pressure by implanting a telemetry transmitter (TL11M2-D70-PCT, Data Sci. International, St. Paul, Minn. USA) into the femoral artery, two weeks prior to the study. During the recovery period, the animal was acclimatized to stay in the sling restraint. On the day of testing, overnight fasted animal was placed in the sling restraint. A Swan-Ganz. Balloon tipped catheter was introduced into the urethra at the level of prostate and the balloon was inflated (Brune. et. al. 1996). After recording the base line readings, effect of 16 μg/kg, phenylephrine (i.v.) on MAP and IUP was recorded. The response of phenylephrine to MAP and […] were recorded at 0.5, 1, 2, 3, 4, 6, 9 and 24 hours after the oral administration of vehicle or the test drug. The changes in MAP were recorded on line using Dataquest Software (Data Sci. International, St. Paul, Minn. USA). The change in phenylephrine response on […] administration after the test drug administration was calculated as percent change of that of control values. Area under curve was calculated, and the ratio of the values for MAP and IUP was used for calculating the uroselectivity (Table III).

[1] = percent change of phenylephrine response over 24 hours

Structure (SMILES): CC(C)Oc1ccccc1N1CCN(CCCN2C(=O)C3CC(O)C(O)CC3C2=O)CC1 (stereo not drawn) [Compound No. 23, 2-[3-{4-(2-Isopropoxyphenyl)piperazin-1-yl}propyl]-5,6-dihydroxy-3a,4,5,6,7,7a, hexahydro-1H-isoindole-1,3(2H)-dione-hydrochloride]
- Ki (α1B adrenoceptor): 127 nM
- Ki (α1A adrenoceptor; [3H] prazosin displacement, rat submaxillary membranes, read-out: Affinity (Ki) α1A (Rat Submaxillary)): 0.98 nM
- α1B/α1A (α1A adrenoceptor; ratio of binding affinities, rat liver / rat submaxillary): 130
- Uroselectivity Ratio IUP/MAP (conscious beagle dogs): 5.5
- Area Under Curve IUP (conscious beagle dogs; [1]): 524
- Area Under Curve MAP (conscious beagle dogs; [1]): 95
